Values after ≈ are worked out from the molar mass of the structure shown.
Assays:
Assay type in all cases: cell-based
[1] = tested on: Proteus vulgaris IFO 3167; assay: Antibacterial spectrum, MIC determination (method of Japan Society of Chemotherapy); details: IFO3167; Proteus vulgaris IFO 3167, Gram -, 10^6 cells/ml; read-out: MIC
[2] = tested on: Veillonella parvula KYA 10790; assay: as above; details: KYA10790; Veillonella parvula KYA 10790, Gram -, 10^6 cells/ml
[3] = tested on: B. fragilis 25285; assay: as above; details: Bacteroides fragilis; B. fragilis 25285, Gram -, 10^6 cells/ml; read-out: MIC
[4] = tested on: Shigella sonnei IID 969; assay: as above; details: IID969; Shigella sonnei IID 969, Gram -, 10^6 cells/ml
Description: Minimal inhibitory concentrations (MICs) were determined in accordance with the method recommended by Japan Society of Chemotherapy.

[5] = tested on: Klebsiella pneumoniae KY(GN)6445; assay: as above; details: Klebsiella pneumoniae KY(GN)6445, Gram -, 10^6 cells/ml; read-out: MIC
[6] = tested on: Propionibacterium acens 11828; assay: as above; details: Propionibacterium acens 11828, Gram +, 10^6 cells/ml; read-out: MIC
[7] = tested on: Alcaligenes faecalis 0114002; assay: as above; details: Alcaligenes faecalis 0114002, Gram -, 10^6 cells/ml
[8] = tested on: Enterobacter cloacae IID 977; assay: as above; details: IID977; Enterobacter cloacae IID 977, Gram -, 10^6 cells/ml
[9] = tested on: B. thetaiotaomicron (0661); assay: as above; details: Bacteroides thetaiotaomicron; B. thetaiotaomicron (0661), Gram -, 10^6 cells/ml; read-out: MIC
[10] = tested on: Escherichia coli NIHJ JC-2; assay: as above; details: NIHJJC2; Escherichia coli NIHJ JC-2, Gram -, 10^6 cells/ml
[11] = tested on: Morganella morganii IID 602; assay: as above; details: IID602; Morganella morganii IID 602, Gram -, 10^6 cells/ml
[12] = tested on: S. pyogenes IID 692; assay: as above; details: Streptococcus pyogenes, IID692; S. pyogenes IID 692, Gram +, 10^6 cells/ml
[13] = tested on: B. vulgatus KYA 29327; assay: as above; details: Phocaeicola vulgatus, KYA29327; B. vulgatus KYA 29327, Gram -, 10^6 cells/ml; read-out: MIC
[14] = tested on: E. coli ML 4707; assay: as above; details: Escherichia coli, ML4707; E. coli ML 4707, Gram -, 10^6 cells/ml; read-out: MIC
[15] = tested on: S. aureus Smith; assay: as above; details: Staphylococcus aureus; S. aureus Smith, Gram +, 10^6 cells/ml; read-out: MIC
[16] = tested on: E. faecalis IID 682; assay: as above; details: Enterococcus faecalis, IID682; E. faecalis IID 682, Gram +, 10^6 cells/ml
[17] = tested on: Pseudomonas aeruginosa V-1; assay: as above; details: V1; Pseudomonas aeruginosa V-1, Gram -, 10^6 cells/ml
[18] = tested on: B. fragilis 0558; assay: as above; details: Bacteroides fragilis; B. fragilis 0558, Gram -, 10^6 cells/ml; read-out: MIC
[19] = tested on: Citrobacter freundii IID 976; assay: as above; details: IID976; Citrobacter freundii IID 976, Gram -, 10^6 cells/ml; read-out: MIC
[20] = tested on: S. pneumoniae IID 552; assay: as above; details: Streptococcus pneumoniae, IID552; S. pneumoniae IID 552, Gram +, 10^6 cells/ml
[21] = tested on: B. distasonis 8503; assay: as above; details: Parabacteroides distasonis; B. distasonis 8503, Gram -, 10^6 cells/ml; read-out: MIC
[22] = tested on: E. coli ATCC 10536; assay: as above; details: Escherichia coli, ATCC10536; E. coli ATCC 10536, Gram -, 10^6 cells/ml; read-out: MIC
[23] = tested on: Clostridium difficile I-E; assay: as above; details: Clostridioides difficile, Gram +, 10^6 cells/ml
[24] = tested on: Staphylococcus aureus 209 P; assay: as above; details: Staphylococcus aureus 209 P, Gram +, 10^6 cells/ml; read-out: MIC
[25] = tested on: Yersinia enterocolitica IID 981; assay: as above; details: IID981; Yersinia enterocolitica IID 981, Gram -, 10^6 cells/ml; read-out: MIC
[26] = tested on: P. aeruginosa IID 1210; assay: as above; details: Pseudomonas aeruginosa, IID1210; P. aeruginosa IID 1210, Gram -, 10^6 cells/ml
[27] = tested on: C. ramosum; assay: as above; details: Thomasclavelia ramosa; C. ramosum, Gram +, 10^6 cells/ml; read-out: MIC
[28] = tested on: Serratia marcescens IID 618; assay: as above; details: IID618; Serratia marcescens IID 618, Gram -, 10^6 cells/ml; read-out: MIC
[29] = tested on: Peptococcus magnus KY 017; assay: as above; details: Finegoldia magna, KY017; Peptococcus magnus KY 017, Gram +, 10^6 cells/ml; read-out: MIC
[30] = tested on: Peptostreptococcus anaerobius KYA 27337; assay: as above; details: KYA27337; Peptostreptococcus anaerobius KYA 27337, Gram +, 10^6 cells/ml; read-out: MIC
[31] = tested on: K. pneumoniae 1-220S; assay: as above; details: Klebsiella pneumoniae, 1220S; K. pneumoniae 1-220S, Gram -, 10^6 cells/ml; read-out: MIC
[32] = tested on: P. mirabilis IID 994; assay: as above; details: Proteus mirabilis, IID994; P. mirabilis IID 994, Gram -, 10^6 cells/ml; read-out: MIC
[33] = tested on: P. cepacia GIFU 518; assay: as above; details: Burkholderia cepacia, GIFU518; P. cepacia GIFU 518, Gram -, 10^6 cells/ml; read-out: MIC
[34] = tested on: Fusobacterium mortiferum 4249; assay: as above; details: Fusobacterium mortiferum 4249, Gram -, 10^6 cells/ml; read-out: MIC
[35] = tested on: Pst. micros UPI 5464-1; assay: as above; details: Parvimonas micra, UPI54641; Pst. micros UPI 5464-1, Gram +, 10^6 cells/ml
[36] = tested on: S. aureus IID 670 (Terajima); assay: as above; details: Staphylococcus aureus, IID670; S. aureus IID 670 (Terajima), Gram +, 10^6 cells/ml; read-out: MIC
[37] = tested on: P. maltophilia GIFU 2491; assay: as above; details: Stenotrophomonas maltophilia, GIFU2491; P. maltophilia GIFU 2491, Gram -, 10^6 cells/ml; read-out: MIC
[38] = tested on: Bacteroides fragilis GM 7000; assay: as above; details: GM7000; Bacteroides fragilis GM 7000, Gram -, 10^6 cells/ml; read-out: MIC
[39] = tested on: F. necrophorum S-45; assay: as above; details: Fusobacterium necrophorum, S45; F. necrophorum S-45, Gram -, 10^6 cells/ml
[40] = tested on: S. epidermidis IID 866; assay: as above; details: Staphylococcus epidermidis, IID866; S. epidermidis IID 866, Gram +, 10^6 cells/ml; read-out: MIC
[41] = tested on: Eubacterium lentum GAI 5242; assay: as above; details: Eggerthella lenta, GAI5242; Eubacterium lentum GAI 5242, Gram +, 10^6 cells/ml
[42] = tested on: Streptococcus pyogenes (S-8); assay: as above; details: Streptococcus pyogenes (S-8), Gram +, 10^6 cells/ml; read-out: MIC
[43] = tested on: C. perfringens KYA 13123; assay: microbe, parasite or virus in culture; details: Clostridium perfringens, KYA13123
[44] = tested on: Salmonella enteritidis IID 604; assay: Antibacterial spectrum, MIC determination (method of Japan Society of Chemotherapy); details: Salmonella enterica; Salmonella enteritidis IID 604, Gram -, 10^6 cells/ml; read-out: MIC
[45] = tested on: Bacillus subtilis PCI 219; assay: as above; details: PCI219; Bacillus subtilis PCI 219, Gram +, 10^6 cells/ml; read-out: MIC
[46] = tested on: F. varium KYA 8501; assay: as above; details: Fusobacterium varium, KYA8501; F. varium KYA 8501, Gram -, 10^6 cells/ml
[47] = tested on: P. aeruginosa IFO 12689; assay: as above; details: Pseudomonas aeruginosa, IFO12689; P. aeruginosa IFO 12689, Gram -, 10^6 cells/ml
[48] = tested on: Acinetobacter anitratus IID 876; assay: as above; details: Acinetobacter calcoaceticus, IID876; Acinetobacter anitratus IID 876, Gram -, 10^6 cells/ml; read-out: MIC

Compound: NC1CCN(c2c(F)cc3c(=O)c(C(=O)O)cn(C4CC4)c3c2Br)C1 (stereo not drawn) [Exp. 1, 7-(3-Amino-1-pyrrolidinyl)-8-bromo-1-cyclopropyl-6-fluoro-1,4-dihydro-4-oxo-3-quinolinecarboxylic acid]
- MIC [1]: 0.0125 µg/mL (≈ 0.0305 µM)
- MIC [2]: 0.1 µg/mL (≈ 0.244 µM)
- MIC [3]: 0.1 µg/mL (≈ 0.244 µM)
- MIC [4]: 0.0063 µg/mL (≈ 0.0154 µM)
- MIC [5]: 0.0125 µg/mL (≈ 0.0305 µM)
- MIC [6]: 1.56 µg/mL (≈ 3.8 µM)
- MIC [7]: 0.1 µg/mL (≈ 0.244 µM)
- MIC [8]: 0.025 µg/mL (≈ 0.0609 µM)
- MIC [9]: 0.2 µg/mL (≈ 0.488 µM)
- MIC [10]: 0.0063 µg/mL (≈ 0.0154 µM)
- MIC [11]: 0.05 µg/mL (≈ 0.122 µM)
- MIC [12]: 0.2 µg/mL (≈ 0.488 µM)
- MIC [13]: 0.2 µg/mL (≈ 0.488 µM)
- MIC [14]: 0.0125 µg/mL (≈ 0.0305 µM)
- MIC [15]: 0.05 µg/mL (≈ 0.122 µM)
- MIC [16]: 0.1 µg/mL (≈ 0.244 µM)
- MIC [17]: 0.2 µg/mL (≈ 0.488 µM)
- MIC [18]: 0.1 µg/mL (≈ 0.244 µM)
- MIC [19]: 0.025 µg/mL (≈ 0.0609 µM)
- MIC [20]: 0.1 µg/mL (≈ 0.244 µM)
- MIC [21]: 0.39 µg/mL (≈ 0.951 µM)
- MIC [22]: 0.0125 µg/mL (≈ 0.0305 µM)
- MIC [23]: 0.78 µg/mL (≈ 1.9 µM)
- MIC [24]: 0.05 µg/mL (≈ 0.122 µM)
- MIC [25]: 0.025 µg/mL (≈ 0.0609 µM)
- MIC [26]: 0.78 µg/mL (≈ 1.9 µM)
- MIC [27]: 1.56 µg/mL (≈ 3.8 µM)
- MIC [28]: 0.05 µg/mL (≈ 0.122 µM)
- MIC [29]: 0.1 µg/mL (≈ 0.244 µM)
- MIC [30]: 0.2 µg/mL (≈ 0.488 µM)
- MIC [31]: 0.025 µg/mL (≈ 0.0609 µM)
- MIC [32]: 0.0125 µg/mL (≈ 0.0305 µM)
- MIC [33]: 0.39 µg/mL (≈ 0.951 µM)
- MIC [34]: 0.2 µg/mL (≈ 0.488 µM)
- MIC [35]: 0.1 µg/mL (≈ 0.244 µM)
- MIC [36]: 0.05 µg/mL (≈ 0.122 µM)
- MIC [37]: 0.05 µg/mL (≈ 0.122 µM)
- MIC [38]: 0.1 µg/mL (≈ 0.244 µM)
- MIC [39]: 0.2 µg/mL (≈ 0.488 µM)
- MIC [40]: 0.1 µg/mL (≈ 0.244 µM)
- MIC [41]: 0.1 µg/mL (≈ 0.244 µM)
- MIC [42]: 0.1 µg/mL (≈ 0.244 µM)
- MIC [43]: 0.2 µg/mL (≈ 0.488 µM)
- MIC [44]: 0.025 µg/mL (≈ 0.0609 µM)
- MIC [45]: 0.025 µg/mL (≈ 0.0609 µM)
- MIC [46]: 0.78 µg/mL (≈ 1.9 µM)
- MIC [47]: 0.39 µg/mL (≈ 0.951 µM)
- MIC [48]: 0.05 µg/mL (≈ 0.122 µM)
